According to patent US20230000773A1, “NOVEL HEADGROUP LIPID COMPOUNDS AND COMPOSITIONS FOR INTRACELLULAR DELIVERY OF THERAPEUTIC AGENTS” (ModernaTX, Inc., priority 2019, published 2023):

Experiments:
[1] = Heparin-sepharose binding of nanoparticles
[2] = Size and polydispersity index of nanoparticles comprising compounds of the disclosure; assay type: physicochemical; details: compound:DSPC:cholesterol:PEG 2 50:10:38:2 mol %
Excerpt: Lipid nanoparticles (e.g., empty LNPs or loaded LNPs) may be characterized by a variety of methods. For example, microscopy (e.g., transmission electron microscopy or scanning electron microscopy) may be used to examine the morphology and size distribution of a nanoparticle composition. Dynamic light scattering or potentiometry (e.g., potentiometric titrations) may be used to measure zeta potentials. Dynamic light scattering may also be utilized to determine particle sizes. Instruments such as the Zetasizer Nano ZS (Malvern Instruments Ltd, Malvern, Worcestershire, UK) may also be used to measure multiple characteristics of a nanoparticle composition, such as particle size, polydispersity index, and zeta potential.
(§1) Nanoparticle compositions including a therapeutic and/or prophylactic can be optimized according to the selection of a compound according to Formula (I), (I-1), (A), (A-1), (A-1a), or (A-1b), the selection of additional lipids, the amount of each lipid in the lipid component, and the wt:wt ratio of the lipid component to the therapeutic and/or prophylactic. Nanoparticle compositions including DSPC as a phospholipid, cholesterol as a structural lipid, PEG 2 as a PEG lipid, and a compound according to Formula (I), (I-1), (A), (A-1), (A-1a), or (A-1b) were prepared. The ratios of the lipids were 50:10:38:2 mol % for the lipid according to Formula (I), (I-1), (A), (A-1), (A-1a), or (A-1b):DSPC:cholesterol:PEG 2. […]

[3] = Apparent LNP pKa by 2-(p-toluidino)-6-napthalene sulfonic acid (TNS) assay; assay type: physicochemical; details: pH at half of maximum fluorescence
[4] = Encapsulation efficiency (% EE), ribostar; assay type: physicochemical; details: nanoparticles, compound:DSPC:cholesterol:PEG 2 50:10:38:2 mol %
Excerpt: The efficiency of encapsulation of a therapeutic and/or prophylactic describes the amount of therapeutic and/or prophylactic that is encapsulated or otherwise associated with a lipid nanoparticle (e.g., an empty LNP or a loaded LNP) after preparation, relative to the initial amount provided. The encapsulation efficiency is desirably high (e.g., close to 100%). The encapsulation efficiency may be measured, for example, by comparing the amount of therapeutic and/or prophylactic in a solution containing the lipid nanoparticle (e.g., an empty LNP or a loaded LNP) before and after breaking up the lipid nanoparticle (e.g., an empty LNP or a loaded LNP) with one or more organic solvents or detergents. Fluorescence may be used to measure the amount of free therapeutic and/or prophylactic (e.g., RNA) in a solution. For the lipid nanoparticles (e.g., empty LNPs or loaded LNPs) described herein, the encapsulation efficiency of a therapeutic and/or prophylactic may be at least 50%, for example 50%, 55%, 60%, 65%, 70%, 75%, 80%, 85%, 90%, 91%, 92%, 93%, 94%, 95%, 96%, 97%, 98%, 99%, or 100%. In some embodiments, the encapsulation efficiency may be at least 80%. In certain embodiments, the encapsulation efficiency may be at least 90%. In some embodiments, the encapsulation efficiency of the therapeutic and/or prophylactic agent is between 80% and 100%.
Nanoparticle compositions including a therapeutic and/or prophylactic can be optimized according to the selection of a compound according to Formula (I), (I-1), (A), (A-1), (A-1a), or (A-1b), the selection of additional lipids, the amount of each lipid in the lipid component, and the wt:wt ratio of the lipid component to the therapeutic and/or prophylactic. Nanoparticle compositions including DSPC as a phospholipid, cholesterol as a structural lipid, PEG 2 as a PEG lipid, and a compound according to Formula (I), (I-1), (A), (A-1), (A-1a), or (A-1b) were prepared. The ratios of the lipids were 50:10:38:2 mol % for the lipid according to Formula (I), (I-1), (A), (A-1), (A-1a), or (A-1b):DSPC:cholesterol:PEG 2. Tables 2a, 2b, and 3-5 summarize the characteristics of the formulations.
Table 4 summarizes the surface hydrophobicity of nanoparticles comprising compounds of the disclosure as determined by Generalized Polarization by Laurdan (GPL). Laurdan, a fluorescent aminonaphthalene ketone lipid, was post-inserted into the nanoparticle surface and the fluorescence spectrum of Laurdan was collected to determine the normalized Generalized Polarization (N-GP). Higher N-GP indicates a less polar surface.

hEPO mRNA = assay: hEPO expression in CD1-mice after intravenous administration of nanoparticles; assay type: in vivo; details: 6 h after intravenous administration, mRNA dose 0.5 mg/kg, N:P 3.4, compound:DSPC:cholesterol:PEG 2 50:10:38:2
Procedure: The expression of hEPO mRNA in CD1-mice was measured 6 h after intravenous administration of nanoparticles comprising a compound of the disclosure, DSPC, cholesterol, and PEG 2 in a ratio of 50:10:38:2. […] Each composition was dosed to 8 animals at an mRNA dose of 0.5 mg/kg.

serum protein ApoE = assay: ApoE binding affinity of nanoparticles (bead binding, flow cytometry)
Procedure: The ApoE binding affinity, i.e., the affinity of binding between nanoparticles comprising compounds of the disclosure and the serum protein ApoE, was determined by binding the nanoparticles to beads, then incubating them with known quantities of […]. The quantity of protein bound to the nanoparticle was then determined by flow cytometry.

[5] = Encapsulation efficiency (% EE), ribogreen; assay type: physicochemical; details: nanoparticles, compound:DSPC:cholesterol:PEG 2 50:10:38:2 mol %
Excerpt: The efficiency of encapsulation of a therapeutic and/or prophylactic describes the amount of therapeutic and/or prophylactic that is encapsulated or otherwise associated with a lipid nanoparticle (e.g., an empty LNP or a loaded LNP) after preparation, relative to the initial amount provided. The encapsulation efficiency is desirably high (e.g., close to 100%). The encapsulation efficiency may be measured, for example, by comparing the amount of therapeutic and/or prophylactic in a solution containing the lipid nanoparticle (e.g., an empty LNP or a loaded LNP) before and after breaking up the lipid nanoparticle (e.g., an empty LNP or a loaded LNP) with one or more organic solvents or detergents. Fluorescence may be used to measure the amount of free therapeutic and/or prophylactic (e.g., RNA) in a solution.
as §1

mRNA = mRNA integrity in nanoparticles by RP-IP HPLC (UV 260 nm); assay type: physicochemical
Procedure: Integrity of mRNA comprised in nanoparticles of the disclosure, i.e., the percentages of intact mRNA, mRNA adducts, and mRNA hydrolysis products, […] (Reverse-Phase Ion-Pairing HPLC) using UV detection at 260 nm. Total purity and impurities are calculated as percent peak area.

[6] = Surface hydrophobicity by Generalized Polarization by Laurdan (GPL); assay type: physicochemical; details: normalized Generalized Polarization by Laurdan; higher N-GP = less polar surface
How it was run: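 LNPs contained ionizable lipid:DSPC:cholesterol:PEG lipid at 50:10:38:2 mol %. Laurdan was post-inserted into the particle surface, and its fluorescence spectrum gave normalized generalized polarization (N-GP); higher N-GP means a less polar surface.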

[7] = mRNA integrity after 2 weeks at 25° C., percent peak area
[8] = mRNA integrity at t = 0, percent peak area

| SMILES | Relative % Area Bound by LNP [1] [%] | PDI [2] | Size (nm) [2] [nm] | LogIC50 (pKa) [3] | % EE (ribostar) [4] [%] | Avg. [hEPO] mIU/mL (hEPO mRNA) [mIU/mL] | Median Fluorescence Intensity, PE (serum protein ApoE) | % EE (ribogreen) [5] [%] | Adduct (mRNA; [7]) [%] | Hydrolysis Product (mRNA; [7]) [%] | Intact (mRNA; [7]) [%] | Adduct (mRNA; [8]) [%] | Hydrolysis Product (mRNA; [8]) [%] | Intact (mRNA; [8]) [%] | Average N-GP [6] |
| --- | --- | --- | --- | --- | --- | --- | --- | --- | --- | --- | --- | --- | --- | --- | --- |
| CCCCCCCCC(CC)OC(=O)CCCCCCCN(CCCCCCCC(=O)OC(CCCCCCCC)CCCCCCCC)CCCNc1n[s+]([O-])nc1NC (centres unmarked) [Compound 1, Heptadecan-9-yl 8-((3-((4-(methylamino)-1-oxido-1,2,5-thiadiazol-3-yl)amino)propyl)(8-oxo-8-(undecan-3-yloxy)octyl)amino)octanoate] | 0 | 0.131 | 67.6 | 6.94 | 61.4 | 6.38E+05 | 182846 | 97.5 |  |  |  |  |  |  |  |
| CCCCCCCCC(CC)OC(=O)CCCCCCCN(CCCCCCCC(=O)OC(CCCCCCCC)CCCCCCCC)CCCNc1ncccc1NC (centres unmarked) [Compound 34, Heptadecan-9-yl 8-((3-((3-(methylamino)pyridin-2-yl)amino)propyl)(8-oxo-8-(undecan-3-yloxy)octyl)amino)octanoate] | 2.90 | 0.211 | 108.2 | 6.87 | 41.6 | 8.06E+05 | 3133 | 75.4 | 7.9 | 51.4 | 40.8 | 3.8 | 36.4 | 59.8 | 1.001 |
| CCCCCCCCC(CC)OC(=O)CCCCCCCN(CCCCCCCC(=O)OC(CCCCCCCC)CCCCCCCC)CCCNC(=O)C1(C)CC1 (centres unmarked) [Compound 60, Heptadecan-9-yl 8-((3-(1-methylcyclopropane-1-carboxamido)propyl)(8-oxo-8-(undecan-3-yloxy)octyl)amino)octanoate] | 5.65 | 0.192 | 90.8 | 6.69 | 20.5 | 7.34E+05 | 41093 | 41.5 | 8.5 | 77.2 | 14.3 | 6.0 | 51.8 | 42.2 | 1.055 |
